# Values quoted from earlier work in patent US20140323444A1, “ANTI-INFLAMMATORY AND ANTIDIABETIC AGENTS” (priority 2013, published 2014).
# Assays:
# [1] = compared with placebo; in contrast to aspirin
# platelet aggregation = conditions: unlike aspirin
# [2] = tested on: patients with type 2 diabetes
# prostaglandin synthesis = conditions: in vivo; compared with aspirin and indomethacin
compound,measurement,setting,value
"O=C(Oc1ccccc1C(=O)O)c1ccccc1O [salsalate, 2-(2-hydroxybenzoyl)oxybenzoic acid]",fecal gastrointestinal blood loss,[1],no greater fecal gastrointestinal blood loss than placebo
same,inhibition of platelet aggregation,platelet aggregation,does not inhibit platelet aggregation
same,adiponectin concentrations,[2]; in vivo,increase adiponectin concentrations
same,circulating insulin,[2]; in vivo,increase circulating insulin
same,glucose utilization,[2]; in vivo,improve glucose utilization
same,C-reactive protein,[2]; patients with type 2 diabetes,lowers
same,HbA1c levels,[2]; patients with type 2 diabetes,lowers
same,blood glucose,[2]; patients with type 2 diabetes,lowers
same,free fatty acid,[2]; patients with type 2 diabetes,lowers
same,triglycerides,[2]; patients with type 2 diabetes,lowers
same,anti-inflammatory activity,prostaglandin synthesis,equivalent to aspirin and indomethacin
